Measured values taken from paper PMC4598023 (PLoS ONE, 2015).
Bridges are numbered along the chain shown (N, C = ends). Where no end group is shown, it is not given here.

Key:
[1] = Amylin aggregation by ThT fluorescence, up to 7 days in PBS pH 7.4; type: physicochemical; settings: PBS pH 7.4, 25°C, followed up to 7 days
Description: In this case, at the indicated time 160 μL sample were mixed with 40 μL ThT 100 μM. In both cases the thioflavin T fluorescence was measured by setting excitation at 450 nm and emission at 482 nm. […] The aggregation curves were fitted using a 4 parameter logistic function and the t1/2, elongation rate and lag time were estimated as described elsewhere.
(§1) Scale bar = 200 nm. The raw data can be found in S2 File.

[2] = Amylin aggregation kinetics by ThT fluorescence, up to 12 h at varying pH; type: physicochemical; settings: 50 μM peptide, 10 mM buffer, 20 μM ThT, 2% DMSO, 25°C
MCF–7 cells = assay: cAMP production in MCF–7 cells following stimulation with amylin and PEGylated amylin; type: cell-based, human; settings: for cAMP: 37°C
Description: The assay was conducted by the CRO Eurofins | Cerep Panlabs, using the cAMP HiRange assay kit (Cisbio, 62AM6PE). According to the company, the assay was performed in 96 well half area plates, in a total reaction volume of 20 μl/well, with a total of 3.000 cells in suspension (after optimization for optimal seeding density and format: adherent or suspension), freshly thawed. Cells were incubated at 37°C in a humidified atmosphere with 5% (v/v) CO2. […] Following the incubation, cells were lysed and the cAMP quantified by using the cAMP HiRange assay kit (Cisbio, 62AM6PE) according to the manufacturer instructions. […] After 60 minutes incubation at room temperature, fluorescence was measured (excitation at 337 nm, emission at 620 vs. 665 nm), and the cAMP concentration was determined by dividing the signal at 665 nm by that at 620 nm and comparing with the cAMP calibration curve. Buffer was used as negative control and the results were corrected accordingly. Results are expressed as mean ± standard error (n = 2) of the resulting cAMP concentrations in nM. EC50 values for the agonist-induced cAMP production was calculated by adjusting data with a logist 4 parameter function (with SigmaPlot, Jandel Sci).
MCF–7 cells endogenously express human amylin receptor CTR1 and CTR2 [72, 73]. Stimulation of the receptor with amylin results in the production of cAMP (Fig 5).

[3] = biological target: T1, human receptor-activity modifying protein 3 Extracellular Topological Domain (RAMP3-ETD), fluorescein-labelled (Homo sapiens, UniProt O60896); assay: Isothermal binding assay, fluorescence anisotropy, RAMP-3; settings: for Anisotropy: 50 nM labelled RAMP-3, PBS pH 7.4, 25°C, mean of five measurements
T1 construct: RAMP3-ETD; residues 28–117; UNIPROT identifier O60896; His tag (N); thrombin cleavage site (N); made in house; host or cells: E. coli BL21DE3pLys
T1 sequence (O60896 28-117): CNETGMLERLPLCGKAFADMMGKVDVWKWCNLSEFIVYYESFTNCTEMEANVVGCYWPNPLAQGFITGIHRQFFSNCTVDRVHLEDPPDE
Text: The human receptor-activity modifying protein 3 Extracellular Topological Domain (RAMP3-ETD; residues 28–117; UNIPROT identifier O60896; Sequence in S1 File) was obtained by heterologous production in E. coli and further purified from inclusion bodies. The synthetic DNA sequence encoding the RAMP3-ETD of RAMP3 was cloned into bacterial protein expression vector pET28b (Novagen/EMD Millipore) from the synthetic gene using NdeI and EcoRI. The sequence and identity of the gene in the pET28b-RAMP3 construct was confirmed with DNA sequencing. The gene synthesis, cloning and sequencing services were provided by GenScript Corporation (Piscataway, NJ, USA).
RAMP3 was produced and purified as described previously for the homologous protein RAMP2 [56]. The RAMP3-ETD was produced as a fusion protein containing an N-terminal histidine tag and a thrombin protease cleavage site, by heterologous expression in E. coli BL21DE3pLys (1 mM IPTG, 37°C, 3 h). […] The purified RAMP3-ETD was refolded by rapid dilution into cold buffer 50 mM sodium phosphate buffer (pH 8.3) containing 1 M arginine hydrochloride, 5 mM reduced glutathione, 1 mM oxidized glutathione, and 1 mM EDTA and left stand for 24 h at 4°C. After refolding, RAMP3-ETD was dialyzed, concentrated in AMICON (Millipore, Brazil), and stored in 20 mM sodium phosphate buffer and 500 mM NaCl, pH 7.0, in liquid nitrogen until use. Purity was over 95% as judged by SDS-PAGE, routine size-exclusion chomatography and MALDI-ToF-MS. The purified RAMP3 was quantified by absorbance at 280 nm, using 21,345 M^-1cm^−1 as extinction coefficient.
The proteins (CTR, RAMP and murine amylin) were labeled with fluorescein isothiocyanate (FITC; Sigma-Aldrich; 0.2 mM final concentration, from stock in DMSO at 5 mM freshly prepared) in 20 mM Na2HPO4, 300 mM NaCl, pH 7.0, for 60 min at 25°C protected from light. The reaction was quenched by adding an excess of Tris-HCl. The free fluorescein was removed by chromatography with a Sephadex G25 desalting column (GE Healthcare, Brazil). The labeling efficiency, final yield and protein quantification were calculated as described elsewhere. The labeling efficiency was below 1 mol FITC:1 mol protein for all labeling procedures. Labeled proteins were stored until use protected from light at -20°C for no longer than 3 months.
The fluorescence measurements were conducted in a Spectramax M5 (Molecular Devices) microplate reader, with excitation and emission set at 480 nm and 520 nm respectively, with cut-off filter 515 nm. The results represent the mean and the standard error of the mean (SEM) of five measurements. Binding data analysis was performed with SigmaPlot 12.5 (Systat Software, Inc., CA, USA).
Fig 4 Amylin self-assembly and interaction with co-receptors. […] Assays were conducted in PBS, pH 7.4, 25°C, in the presence of 50 nM FITC-labelled proteins (amylin, CTR–1 or RAMP–3). Ex 480 nm, Em 520 nm, filter 515 nm. The raw data can be found in S2 File.

[4] = Morphologic analysis of aggregation products by transmission electron microscopy (TEM); type: physicochemical; settings: negative stain 2% uranyl acetate; products of the aggregation kinetics
Text: Samples from aggregation kinetic assay were applied to 300 mesh, Formvar-carbon-coated Cu grids (Electron Microscopy Science, USA), followed by negative stain with 2% uranyl acetate, pH 4.8, for 30–60 s.
as §1

In the case of “PEGylated human amylin: human amylin monoconjugated at the N-terminal Lys1 region with 5 kDa methoxyl polyethylene glycol succinimidyl carbonate (mPEGsc5k) (KCNTATCATQRLANFLVHSSNNFGAILSSTNVGSNTY-NH2; disulfide 2-7; also: one mPEG 5 kDa (mPEGsc5k) on a Lys1 amino group)”, the “changes in ThT fluorescence up to 7 days” value [1] is reported as “only minor changes in ThT fluorescence”, the “changes in ThT fluorescence in the 12 h time window” value [2] is reported as “did not observe changes in fluorescence” and the cAMP (MCF–7 cells; 1.00E-05 Molar, replicate 1, 30 min) is reported as 53.95 nM. For the same substance, the cAMP (MCF–7 cells; 1.00E-05 Molar, replicate 2, 30 min) was 47.73 nM, the cAMP (MCF–7 cells; 1.00E-06 Molar, replicate 1, 30 min) was 47.85 nM and the cAMP (MCF–7 cells; 1.00E-06 Molar, replicate 2, 30 min) was 54.26 nM. It also gave a cAMP (MCF–7 cells; 1.00E-07 Molar, replicate 1, 30 min) of 38.3 nM, a cAMP (MCF–7 cells; 1.00E-07 Molar, replicate 2, 30 min) of 36.06 nM and a cAMP (MCF–7 cells; 1.00E-08 Molar, replicate 1, 30 min) of 17.13 nM. It also gave a cAMP (MCF–7 cells; 1.00E-08 Molar, replicate 2, 30 min) of 22.08 nM, a cAMP (MCF–7 cells; 1.00E-09 Molar, replicate 1, 30 min) of 5.54 nM and a cAMP (MCF–7 cells; 1.00E-09 Molar, replicate 2, 30 min) of 6.29 nM. For the same substance, the cAMP (MCF–7 cells; 1.00E-10 Molar, replicate 1, 30 min) was 3.86 nM, the cAMP (MCF–7 cells; 1.00E-10 Molar, replicate 2, 30 min) was 4.59 nM and the cAMP (MCF–7 cells; 1.00E-11 Molar, replicate 1, 30 min) was 4.14 nM. It also gave a cAMP (MCF–7 cells; 1.00E-11 Molar, replicate 2, 30 min) of 3.71 nM, a cAMP (MCF–7 cells; 1.00E-12 Molar, replicate 1, 30 min) of 4.83 nM and a cAMP (MCF–7 cells; 1.00E-12 Molar, replicate 2, 30 min) of 5.61 nM. For the same substance, the EC50 (MCF–7 cells; 30 min 37°C, HBSS/HEPES pH 7.4, 500 μM IBMX, cAMP HiRange kit, 4 parameter logistic fit, n = 2, done by CRO) was 30.8 ± 6.7 nM, the “binding to coreceptor RAMP3 (in words)” value ([3]; fluorescence anisotropy, PBS pH 7.4, 25°C, 50 nM FITC-labelled protein) was “PEGylation did not abolish the assembly” and the Anisotropy ([3]; ligand 0.0492 µM) was 0.0481. The Anisotropy ([3]; ligand 0.1229 µM) was 0.0421, the Anisotropy ([3]; ligand 0.3072 µM) was 0.0449 and the Anisotropy ([3]; ligand 0.768 µM) was 0.0486. The Anisotropy ([3]; ligand 1.92 µM) was 0.0614, the Anisotropy ([3]; ligand 4.8 µM) was 0.1188 and the Anisotropy ([3]; ligand 12 µM) was 0.2199. The Anisotropy ([3]; ligand 30 µM) was 0.1286 and the “fibrils by TEM after aggregation assay” value [4] was “no fibrils were observed”.
